Read-outs that look alike come from different tables or passages of the source.
Experiments:
CIC-1 channels = target: T1, CIC-1 channels (Rattus norvegicus, UniProt P35524); assay: Electrophysiological measurement of compound inhibition of CIC-1 (Gm) in rat soleus muscle fibres: EC50 (Table 7)
T1 sequence (P35524 1-994): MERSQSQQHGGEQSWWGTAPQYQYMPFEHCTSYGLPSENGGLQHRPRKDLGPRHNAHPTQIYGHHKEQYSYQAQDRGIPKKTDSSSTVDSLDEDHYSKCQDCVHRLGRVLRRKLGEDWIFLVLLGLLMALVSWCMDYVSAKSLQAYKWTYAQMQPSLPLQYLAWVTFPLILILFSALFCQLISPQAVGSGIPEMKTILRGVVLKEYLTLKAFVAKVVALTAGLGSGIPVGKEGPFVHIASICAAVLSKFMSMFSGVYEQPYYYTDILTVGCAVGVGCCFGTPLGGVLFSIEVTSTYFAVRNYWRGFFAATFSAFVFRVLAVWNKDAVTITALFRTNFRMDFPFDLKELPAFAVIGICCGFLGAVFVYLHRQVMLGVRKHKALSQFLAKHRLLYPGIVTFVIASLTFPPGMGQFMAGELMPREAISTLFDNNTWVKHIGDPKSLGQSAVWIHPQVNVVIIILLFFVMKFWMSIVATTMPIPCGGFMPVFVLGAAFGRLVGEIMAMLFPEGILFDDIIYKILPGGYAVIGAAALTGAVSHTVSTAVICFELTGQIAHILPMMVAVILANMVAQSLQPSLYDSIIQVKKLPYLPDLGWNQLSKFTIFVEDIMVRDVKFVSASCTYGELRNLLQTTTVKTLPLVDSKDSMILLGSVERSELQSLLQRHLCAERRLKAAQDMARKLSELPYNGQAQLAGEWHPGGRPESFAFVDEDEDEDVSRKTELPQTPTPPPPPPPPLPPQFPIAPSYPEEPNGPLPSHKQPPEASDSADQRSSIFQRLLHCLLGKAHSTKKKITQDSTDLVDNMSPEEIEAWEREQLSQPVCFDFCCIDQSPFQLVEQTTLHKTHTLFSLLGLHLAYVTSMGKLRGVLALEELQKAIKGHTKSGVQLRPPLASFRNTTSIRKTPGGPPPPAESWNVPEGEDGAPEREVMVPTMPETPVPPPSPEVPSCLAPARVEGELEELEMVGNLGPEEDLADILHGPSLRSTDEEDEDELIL

rat soleus muscles [1] = assay: Recovery of force in isolated rat soleus nerve-muscle preparations after 115 nM tubocurarine, 50 μM compound (Table 8); conditions: 40 mins exposure
Experimental: Force traces from a representative muscle stimulated to contract in 1) control condition before addition of neuromuscular blocking agent, 2) the force response to stimulation after 90 minutes incubation with Tubocurarine. […] The traces presented in FIG. 12A (1, 2, 3), correspond to the dotted lines in FIG. 12B, respectively.
Recovery of force is quantified as the percentage of the force prior to tubocurarine that is recovered by the compound.
The current invention relates to compounds that inhibit CIC-1 ion channels and increase muscle excitability and thereby improve muscle function in clinical conditions where muscle activation is failing. Such conditions result in loss of contractile function of skeletal muscle, weakness and excessive fatigue. In this series of experiments the compounds were tested for their ability to restore contractile function of isolated rat muscle when the neuromuscular transmission had been compromised akin to neuromuscular disorders.
Experimentally, soleus muscles from 4-5 wk old rats were isolated with the motor nerve remaining attached. The nerve-muscle preparations were mounted in experimental setups that enabled electrical stimulation of the motor nerve. Stimulation of the motor nerve led to activation of the muscle fibres and ensuing force production that was recorded.
After mounting the nerve-muscle preparation in the experimental setup, the contractile function of the muscle was initially assessed under the control conditions (FIG. 2A). […] The experimental condition mimics the failing neuromuscular transmission in a range of neuromuscular disorders. After addition of tubocurarine the contractile force declined over the next 90 mins to 10-50% of the control force. 50 μM of the test compound was then added and the contractile force recovered despite the continued presence of tubocurarine. To quantify the ability of the compound to restore force the percentage of the initial force that was restored was determined after 40 mins of compound exposure (FIG. 2B) and the point increase is reported in Table 8.

rat soleus muscles [2] = assay: Recovery of nerve-stimulated force in isolated rat soleus muscles exposed to sub-maximal tubocurarine (Table 1); conditions: for 500 μM % change after addition (AUC force): 500 μM compound
Experimental: The motor nerve was stimulated every 10 min for 2 s with 30 Hz with field stimulation using short duration pulses. […] Traces are shown before addition tubocurarine, after 40 min with tubocurarine, and after 110 min tubocurarine. […] This recovery of force was used in Table 1.
Experiments were performed using rat soleus muscles from either young (4-wk-old) or adult Wistar rats (12-14-week-old). Animal handling, killing and isolation of muscle is described elsewhere All experiments were performed using normal Krebs-Ringer bicarbonate solution (NKR). In solutions with elevated Mg^2+, MgCl^2 was added to NKR-solution causing minor increases in osmolarity and ionic strength. In solutions with elevated K^+, 4 mM NaCl was replaced by 4 mM KCl in the NKR.
In all contraction experiments, isometric force production was determined and force produced during contractions was quantified by measuring the integral of the force response (AUC). Stimulation and force recordings have been described elsewhere. […] In these latter experiments, extracellular recordings of action potentials (M-waves) could be measured without temporal overlap with stimulation artefacts.
The aim was to find compounds that by inhibition of CIC-1 channels can recover nerve-stimulated force under conditions of fatigue including conditions where fatigue is caused by compromised neuromuscular transmission. Neuromuscular transmission dysfunction can develop because of both pre- and/or post-synaptic complications in connection with a disorder or as part of neuromuscular blockade during/after surgery. In the initial series of drug testing, experiments were performed with isolated muscles in the presence of sub-maximal ACh receptor antagonist tubocurarine. Since the inclusion of tubocurarine caused a partial loss of neuromuscular transmission this experiment mimics the conditions in myasthenia gravis and neuromuscular blockade. To mimic conditions with pre-synaptic complication (Lambert Eaton syndrome, motor neuron disorder, polyneuropathy) the intact nerve-muscle preparations were incubated at elevated extracellular Mg^2+, which is known to suppress release of ACh from nerve terminals of motor neurons. […]
For comparison with the muscle only exposed to tubocurarine (grey trace), the two traces have been overlaid. […] For comparison, muscles only exposed to tubocurarine have been included. The dotted line indicates the recovery of force with C8 when compared to the force production before its addition. This value was used in Table 1 for evaluation of the efficacy of the different compounds in recovering force.

[3] = 150 μM compound, % change in AUC compared to AUC before addition, after 40 min in tubocurarine
[4] = % change in AUC compared to AUC before addition, after 40 min in tubocurarine

Which EC50 (CIC-1 channels) does the source give for `O=C(O)[C@H](CF)Oc1ccc(Cl)cc1-c1ccon1` [Compound A-39, (2R)-2-[4-chloro-2-(1,2-oxazol-3-yl)phenoxy]-3-fluoropropanoic acid] here?
The EC50 was 5.2 µM.

And the “Point increase (%) of initial force that was restored” value (shortened to “Point increase (%)”) (rat soleus muscles [1])?
The value was 36%.

Which EC50 (CIC-1 channels) does the source give for `O=C(O)[C@H](CF)Oc1cc(F)c(Cl)cc1-c1ccon1` [Compound A-47, (2R)-2-[4-chloro-5-fluoro-2-(1,2-oxazol-3-yl)phenoxy]-3-fluoropropanoic acid] here?
The EC50 was 7.7 µM.

What about the “Point increase (%)” value (rat soleus muscles [1]) of the same compound?
The value was 19%.

How did the EC50 (CIC-1 channels) turn out when `C[C@H](Oc1ccc(Br)cc1-c1cc(C2CC2)on1)C(=O)O` [Compound A-11, (2S)-2-[4-bromo-2-(5-cyclopropyl-1,2-oxazol-3-yl)phenoxy]propanoic acid] was run?
The EC50 was 10.3 µM.

And the “Point increase (%)” value (rat soleus muscles [1])?
Its value is 19%.

With `CC[C@H](Oc1ccc(Br)cc1-c1ccno1)C(=O)O` [Compound A-1, (2S)-2-[4-bromo-2-(1,2-oxazol-5-yl)phenoxy]butanoic acid] as the compound, how does the EC50 (CIC-1 channels) read?
Its EC50 is 12.4 µM.

And the “Point increase (%)” value (rat soleus muscles [1])?
The value was 18%.

`O=C(O)[C@H](CF)Oc1ccc(Br)cc1-c1csnn1` [Compound A-66, (2R)-2-[4-bromo-2-(1,2,3-thiadiazol-4-yl)phenoxy]-3-fluoropropanoic acid] was tested. Which “Point increase (%)” value (rat soleus muscles [1]) did it give?
The value was 13%.

For `O=C(O)[C@H](CF)Oc1ccc(Br)cc1-c1ccno1` [Compound A-21, (2R)-2-[4-bromo-2-(1,2-oxazol-5-yl)phenoxy]-3-fluoropropanoic acid], which “Point increase (%)” value (rat soleus muscles [1]) is on record?
The value was 13%.

With `O=C(O)COc1ccc(Br)cc1-c1ccno1` [Compound A-69, 2-[4-bromo-2-(1,2-oxazol-5-yl)phenoxy]acetic acid] as the compound, how does the EC50 (CIC-1 channels) read?
Its EC50 is 7.8 µM.

And the “Point increase (%)” value (rat soleus muscles [1])?
Its value is 15%.

`O=C(O)[C@H](CC1CC1)Oc1ccc(Br)cc1-c1csnn1` [Compound A-75, (2S)-2-[4-bromo-2-(1,2,3-thiadiazol-4-yl)phenoxy]-3-cyclopropylpropanoic acid] was tested. Which “Point increase (%)” value (rat soleus muscles [1]) did it give?
The value was 10%.

Which “Point increase (%)” value (rat soleus muscles [1]) does the source give for `O=C(O)COc1ccc(Cl)cc1-c1ccno1` [Compound A-78, 2-[4-chloro-2-(1,2-oxazol-5-yl)phenoxy]acetic acid] here?
Its value is 17%.

What does the source list for `CC(C(=O)O)S(=O)(=O)c1ccc(F)cc1` (stereo not drawn) [Compound C6, 2-(4-fluorobenzenesulfonyl)propanoic acid]?
150 μM % change after addition (AUC force) (rat soleus muscles [2]; [3]): −8%; 500 μM % change after addition (AUC force) (rat soleus muscles [2]; [4]): 9%

`O=C(O)[C@H](CC1CCC1)Oc1ccc(Br)cc1-c1ccon1` [Compound A-71, (2S)-2-[4-bromo-2-(1,2-oxazol-3-yl)phenoxy]-3-cyclobutylpropanoic acid] was tested. Which EC50 (CIC-1 channels) did it give?
Its EC50 is 6.5 µM.

And the “Point increase (%)” value (rat soleus muscles [1])?
Its value is 15%.

`O=C(O)[C@H](CC1CC1)Oc1ccc(Cl)cc1-c1ccno1` [Compound A-52, (2S)-2-[4-chloro-2-(1,2-oxazol-5-yl)phenoxy]-3-cyclopropylpropanoic acid] was tested. Which “Point increase (%)” value (rat soleus muscles [1]) did it give?
Its value is 11%.

`O=C(O)[C@H](CF)Oc1cc(F)c(Br)cc1-c1ccon1` [Compound A-63, (2R)-2-[4-bromo-5-fluoro-2-(1,2-oxazol-3-yl)phenoxy]-3-fluoropropanoic acid] was tested. Which EC50 (CIC-1 channels) did it give?
Its EC50 is 10.8 µM.

What about the “Point increase (%)” value (rat soleus muscles [1]) of the same compound?
Its value is 23%.

With `C[C@@H](Oc1ccc(Br)cc1-c1ccno1)C(=O)O` [(2R)-A-22] as the compound, how does the EC50 (CIC-1 channels) read?
The EC50 was over 80 µM.

What about the “Point increase (%)” value (rat soleus muscles [1]) of the same compound?
Its value is −3%.

For `C[C@H](OCc1ccccc1)C(=O)O` [Compound C5, (2S)-2-(benzyloxy)propanoic acid], which “150 μM % change after addition (AUC force)” value (from here on “150 μM % change”) (rat soleus muscles [2]; [3]) is on record?
The value was 1%.

What about the “500 μM % change after addition (AUC force)” value (from here on “500 μM % change”) (rat soleus muscles [2]; [4]) of the same compound?
The value was 42%.

With `CCC(Oc1ccc(Cl)cc1)C(=O)O` (stereo not drawn) [Compound C7, 2-(4-chlorophenoxy)butanoic acid] as the compound, how does the “150 μM % change” value (rat soleus muscles [2]; [3]) read?
Its value is 0%.

What about the “500 μM % change” value (rat soleus muscles [2]; [4]) of the same compound?
The value was 40%.

Which EC50 (CIC-1 channels) does the source give for `CC[C@H](Oc1ccc(Cl)cc1-c1ccon1)C(=O)O` [Compound A-35, (2S)-2-[4-chloro-2-(1,2-oxazol-3-yl)phenoxy]butanoic acid] here?
Its EC50 is 10.4 µM.

What about the “Point increase (%)” value (rat soleus muscles [1]) of the same compound?
Its value is 28%.

For `C[C@H](Oc1ccc(Cl)cc1-c1cocn1)C(=O)O` [Compound A-46, (2S)-2-[4-chloro-2-(1,3-oxazol-4-yl)phenoxy]propanoic acid], which “Point increase (%)” value (rat soleus muscles [1]) is on record?
Its value is 11%.

How did the EC50 (CIC-1 channels) turn out when `CC(C)[C@H](Oc1ccc(Br)cc1-c1ccon1)C(=O)O` [Compound A-3, (2S)-2-[4-bromo-2-(1,2-oxazol-3-yl)phenoxy]-3-methylbutanoic acid] was run?
The EC50 was 11.6 µM.

For `COCC(C)C(Oc1ccc(Br)cc1)C(=O)O` (stereo not drawn) [Compound C21, 2-(4-bromophenoxy)-4-methoxy-3-methylbutanoic acid], which “150 μM % change” value (rat soleus muscles [2]; [3]) is on record?
Its value is 7%.

And the “500 μM % change” value (rat soleus muscles [2]; [4])?
Its value is 36%.

Which “Point increase (%)” value (rat soleus muscles [1]) does the source give for `CC[C@H](Oc1ccc(Cl)cc1-c1ccno1)C(=O)O` [Compound A-49, (2S)-2-[4-chloro-2-(1,2-oxazol-5-yl)phenoxy]butanoic acid] here?
Its value is 16%.

With `O=C(O)COc1ccc(Br)cc1-c1csnn1` [Compound A-79, 2-[4-bromo-2-(1,2,3-thiadiazol-4-yl)phenoxy]acetic acid] as the compound, how does the “Point increase (%)” value (rat soleus muscles [1]) read?
Its value is 17%.

How did the “50 μM % change after addition (AUC force)” value (rat soleus muscles [2]) turn out when `CC(Oc1ccc(Cl)cc1)C(=O)Oc1ccc(Cl)cc1` (stereo not drawn) [Compound C11, 4-chlorophenyl 2-(4-chlorophenoxy)propanoate] was run?
Its value is 46%.

What about the “150 μM % change” value (rat soleus muscles [2]) of the same compound?
The value was 54%.

Which “Point increase (%)” value (rat soleus muscles [1]) does the source give for `CC[C@H](Oc1ccc(Br)cc1-c1csnn1)C(=O)O` [Compound A-67, (2S)-2-[4-bromo-2-(1,2,3-thiadiazol-4-yl)phenoxy]butanoic acid] here?
The value was 13%.

`Cl.NCC(Oc1ccc(F)cc1)C(=O)O` (stereo not drawn) [Compound C9, 3-amino-2-(4-fluorophenoxy)propanoic acid hydrochloride] was tested. Which “150 μM % change” value (rat soleus muscles [2]; [3]) did it give?
The value was −13%.

What about the “500 μM % change” value (rat soleus muscles [2]; [4]) of the same compound?
Its value is 5%.

How did the EC50 (CIC-1 channels) turn out when `C[C@H](Oc1ccc(Cl)cc1-c1csnn1)C(=O)O` [Compound A-62, (2S)-2-[4-chloro-2-(1,2,3-thiadiazol-4-yl)phenoxy]propanoic acid] was run?
Its EC50 is 9.4 µM.

What about the “Point increase (%)” value (rat soleus muscles [1]) of the same compound?
Its value is 17%.

— patent US20260007639A1, “COMPOUNDS FOR THE TREATMENT OF NEUROMUSCULAR DISORDERS” (NMD PHARMA A/S, priority 2017, published 2026)
